From patent US6737383B1, “Herbicidal oxadiazolidines” (priority 1999, dated 2004)

How the values were obtained:
[1] = test system: green foxtail; test: Test E green foxtail; assay type: in vivo, Setaria viridis; details: Preemergence
[2] = test system: wheat; test: Test B pre/postemergence wheat; assay type: in vivo, Triticum aestivum; details: for Wheat plant response rating (0 to 10 scale): 0 is no effect; for Plant response rating, Wheat: Rate 250 g/ha
Method in brief: (§1)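 Response is a visual 0-to-10 score relative to untreated plants, where 0 means no effect and 10 means complete control, taken twelve to sixteen days after application. Treatments went onto soil at planting and onto foliage of 1- to 4-leaf plants, using a surfactant-containing non-phytotoxic solvent.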

[3] = test system: wild oat; test: Test E wild oat; assay type: in vivo, Avena fatua; details: Preemergence
[4] = test system: guineagrass; test: Test D guineagrass; assay type: in vivo, Panicum maximum; details: Preemergence, 0 to 100 scale
Method in brief: (§2)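 Herbicide screen in the greenhouse. A non-phytotoxic solvent mixture with surfactant carried the test chemical; in pre-emergence tests it went onto the soil of pots seeded no more than a day earlier. Injury was scored by eye 14 to 21 days after application, 0 to 100.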

[5] = test system: wild oat; test: Test B pre/postemergence wild oat; assay type: in vivo, Avena fatua; details: for Wild oats plant response rating (0 to 10 scale): 0 is no effect; for Plant response rating, Wild oats: Rate 250 g/ha
Method in brief: as §1

[6] = test system: winter wheat; test: Test E winter wheat; assay type: in vivo, Triticum aestivum; details: Postemergence
Method in brief: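 For postemergence, application to 1- to 4-leaf plants growing in a 60:40 sandy loam–potting mix substrate. Formulation: non-phytotoxic solvent mixture plus surfactant. Untreated controls served as the reference for the visual rating after ~21–28 days.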

[7] = test system: common ragweed; test: Test D common ragweed; assay type: in vivo, Ambrosia elatior; details: Preemergence, 0 to 100 scale
Method in brief: as §2

[8] = test system: winter barley; test: Test E winter barley; assay type: in vivo, Hordeum vulgare; details: Preemergence
[9] = test system: winter wheat; test: Test E winter wheat; assay type: in vivo, Triticum aestivum; details: Preemergence
[10] = test system: blackgrass; test: Test E blackgrass; assay type: in vivo, Alopecurus myosuroides; details: Preemergence
[11] = test system: cocklebur; test: Test B pre/postemergence cocklebur; assay type: in vivo, Xanthium strumarium
Method in brief: as §1

[12] = test system: purple nutsedge; test: Test D purple nutsedge; assay type: in vivo, Cyperus rotundus; details: Preemergence, 0 to 100 scale
Method in brief: as §2

[13] = test system: crabgrass; test: Test B pre/postemergence crabgrass; assay type: in vivo, Digitaria sanguinalis
Method in brief: as §1

[14] = test system: large crabgrass; test: Test D large crabgrass; assay type: in vivo, Digitaria sanguinalis; details: Preemergence, 0 to 100 scale
Method in brief: as §2

[15] = test system: Italian ryegrass; test: Test E Italian ryegrass; assay type: in vivo, Lolium multiflorum; details: Preemergence
[16] = Rate 62 g/ha, 0 to 100 scale, 0 no effect, 100 complete control
[17] = Postemergence, Rate 125 g/ha, scale of 0 to 10 where 0 is no effect and 10 is complete control
[18] = Preemergence, Rate 62 g/ha, scale 0 to 10 (0 no effect, 10 complete control)
[19] = Preemergence, Rate 125 g/ha, 10 is complete control
[20] = Preemergence, scale of 0 to 10 where 0 is no effect and 10 is complete control
[21] = Preemergence, Rate 500 g/ha, scale 0 to 10 (0 no effect, 10 complete control)
[22] = Rate 62 g/ha, Postemergence, scale of 0 to 10 where 0 is no effect and 10 is complete control
[23] = Postemergence, scale 0 to 10, 0 is no effect, 10 is complete control
[24] = Rate 500 g/ha, Postemergence, scale 0 to 10, 0 no effect, 10 complete control
[25] = Rate 125 g/ha, 0 to 100 scale (0 no effect, 100 complete control)
[26] = Rate 16 g/ha, 0 no injury, 100 complete control
[27] = Rate 32 g/ha, 0 no injury, 100 complete control
[28] = Rate 64 g/ha, 0 no injury, 100 complete control
[29] = Rate 125 g/ha, 0 no injury, 100 complete control
[30] = Rate 250 g/ha, 0 to 100 scale (0 no effect, 100 complete control)
[31] = Postemergence, Rate 250 g/ha, scale 0 to 10, 0 no effect, 10 complete control
[32] = Preemergence, Rate 125 g/ha, scale 0 to 10 (0 no effect, 10 complete control)
[33] = Preemergence, Rate 250 g/ha, scale of 0 to 10 where 0 is no effect and 10 is complete control

With `CCn1c(=O)on(C(=O)N(c2ccc(Cl)cc2)C(C)C)c1=O` [Compound 108] the “Plant response rating, Green foxtail” value [1, 16] was 65, the “Plant response rating, Green foxtail” value ([1]; Rate 250 g/ha, 0 to 100 scale) was 90 and the “Wheat plant response rating” value [2, 17] was 0. The “Wheat plant response rating” value [2, 18] was 0, the “Wheat plant response rating (0 to 10 scale)” value [2, 19] was 0 and the “Plant response rating, Wheat” value [2, 20] was 2. The “Wheat plant response rating” value [2, 21] was 3, the “Wheat plant response rating” value [2, 22] was 0 and the “Plant response rating, Wheat” value [2, 23] was 0. For the same compound, the “Wheat plant response rating” value [2, 24] was 2, the “Plant response rating, Wild oat” value [3, 16] was 15 and the “Plant response rating, Wild oat” value [3, 25] was 30. The “Plant response rating, Guineagrass” value [4, 26] was 0, the “Plant response rating, Guineagrass” value [4, 27] was 85 and the “Plant response rating, Guineagrass” value [4, 28] was 98. For the same compound, the “Plant response rating, Guineagrass” value [4, 29] was 98, the “Plant response rating, Guineagrass” value ([4]; Rate 250 g/ha) was 100 and the “Plant response rating, Guineagrass” value ([4]; Rate 500 g/ha) was 100. For the same compound, the “Wild oats plant response rating” value [5, 17] was 0, the “Wild oats plant response rating” value [5, 18] was 9 and the “Wild oats plant response rating (0 to 10 scale)” value [5, 19] was 9. For the same compound, the “Plant response rating, Wild oats” value [5, 20] was 9, the “Wild oats plant response rating” value [5, 21] was 9 and the “Wild oats plant response rating” value [5, 22] was 0. The “Plant response rating, Wild oats” value [5, 23] was 3, the “Wild oats plant response rating” value [5, 24] was 3 and the “Plant response rating, Wheat (winter)” value ([6]; Rate 62 g/ha, 0 to 100 scale) was 0. The “Plant response rating, Wheat (winter)” value ([6]; Rate 125 g/ha, 0 to 100 scale) was 20, the “Plant response rating, Wheat (winter)” value [6, 30] was 40 and the “Plant response rating, C. ragweed” value [7, 26] was 0. The “Plant response rating, C. ragweed” value [7, 27] was 0, the “Plant response rating, C. ragweed” value [7, 28] was 0 and the “Plant response rating, C. ragweed” value [7, 29] was 0. For the same compound, the “Plant response rating, C. ragweed” value ([7]; Rate 250 g/ha) was 0, the “Plant response rating, C. ragweed” value ([7]; Rate 500 g/ha) was 80 and the “Plant response rating, Barley (winter)” value [8, 16] was 10. For the same compound, the “Plant response rating, Barley (winter)” value [8, 25] was 20, the “Plant response rating, Barley (winter)” value ([8]; Rate 250 g/ha, 0 to 100 scale) was 10 and the “Plant response rating, Wheat (winter)” value [9, 16] was 0. For the same compound, the “Plant response rating, Wheat (winter)” value [9, 25] was 10, the “Plant response rating, Wheat (winter)” value ([9]; Rate 250 g/ha, 0 to 100 scale) was 10 and the “Plant response rating, Blackgrass” value [10, 16] was 40. The “Plant response rating, Blackgrass” value [10, 25] was 75, the “Plant response rating, Blackgrass” value ([10]; Rate 250 g/ha, 0 to 100 scale) was 90 and the “Cocklebur plant response rating” value [11, 17] was 0. For the same compound, the “Cocklebur plant response rating” value [11, 31] was 0, the “Plant response rating, Cocklebur” value [11, 32] was 0 and the “Plant response rating, Cocklebur” value [11, 33] was 0. For the same compound, the “Cocklebur plant response rating” value [11, 21] was 0, the “Cocklebur plant response rating” value [11, 22] was 0 and the “Cocklebur plant response rating” value [11, 24] was 2. For the same compound, the “Plant response rating, Purple nutsedge” value [12, 26] was 0, the “Plant response rating, Purple nutsedge” value [12, 27] was 0 and the “Purple nutsedge plant response rating” value [12, 28] was 0. The “Purple nutsedge plant response rating” value [12, 29] was 10, the “Plant response rating, Purple nutsedge” value ([12]; Rate 250 g/ha) was 10 and the “Plant response rating, Purple nutsedge” value ([12]; Rate 500 g/ha) was 30. For the same compound, the “Crabgrass plant response rating” value [13, 17] was 8, the “Crabgrass plant response rating” value [13, 31] was 8 and the “Crabgrass plant response rating” value [13, 18] was 7. For the same compound, the “Plant response rating, Crabgrass” value [13, 32] was 9, the “Plant response rating, Crabgrass” value [13, 33] was 9 and the “Crabgrass plant response rating” value [13, 21] was 10. The “Crabgrass plant response rating” value [13, 22] was 4, the “Crabgrass plant response rating” value [13, 24] was 9 and the “Plant response rating, Large crabgrass” value [14, 26] was 85. For the same compound, the “Plant response rating, Large crabgrass” value [14, 27] was 100, the “Plant response rating, Large crabgrass” value [14, 28] was 100 and the “Plant response rating, Large crabgrass” value [14, 29] was 100. The “Plant response rating, Large crabgrass” value ([14]; Rate 250 g/ha) was 100, the “Plant response rating, Large crabgrass” value ([14]; Rate 500 g/ha) was 100 and the “Plant response rating, I. Ryegrass” value [15, 16] was 20. The “Plant response rating, I. Ryegrass” value [15, 25] was 45 and the “Plant response rating, I. Ryegrass” value ([15]; Rate 250 g/ha, 0 to 100 scale) was 95.

With `CC(C)N(C(=O)n1oc(=O)n(C2CCCCC2)c1=O)c1ccc(F)cc1` [Compound 110] the “Plant response rating, Green foxtail” value [1, 16] was 30, the “Plant response rating, Green foxtail” value [1, 25] was 60 and the “Plant response rating, Green foxtail” value ([1]; Rate 250 g/ha, 0 to 100 scale) was 85. The “Wheat plant response rating” value [2, 17] was 0, the “Wheat plant response rating” value [2, 18] was 0 and the “Wheat plant response rating (0 to 10 scale)” value [2, 19] was 0. The “Plant response rating, Wheat” value [2, 20] was 0, the “Wheat plant response rating” value [2, 21] was 3 and the “Wheat plant response rating” value [2, 22] was 0. For the same compound, the “Plant response rating, Wheat” value [2, 23] was 0, the “Wheat plant response rating” value [2, 24] was 1 and the “Plant response rating, Wild oat” value [3, 16] was 0. For the same compound, the “Plant response rating, Wild oat” value [3, 25] was 0, the “Plant response rating, Guineagrass” value ([4]; Rate 250 g/ha) was 100 and the “Plant response rating, Guineagrass” value ([4]; Rate 500 g/ha) was 100. For the same compound, the “Wild oats plant response rating” value [5, 17] was 0, the “Wild oats plant response rating” value [5, 18] was 0 and the “Wild oats plant response rating (0 to 10 scale)” value [5, 19] was 3. The “Plant response rating, Wild oats” value [5, 20] was 5, the “Wild oats plant response rating” value [5, 21] was 5 and the “Wild oats plant response rating” value [5, 22] was 0. For the same compound, the “Plant response rating, Wild oats” value [5, 23] was 0, the “Wild oats plant response rating” value [5, 24] was 2 and the “Plant response rating, Wheat (winter)” value ([6]; Rate 62 g/ha, 0 to 100 scale) was 0. For the same compound, the “Plant response rating, Wheat (winter)” value ([6]; Rate 125 g/ha, 0 to 100 scale) was 0, the “Plant response rating, Wheat (winter)” value [6, 30] was 0 and the “Plant response rating, C. ragweed” value ([7]; Rate 250 g/ha) was 0. The “Plant response rating, C. ragweed” value ([7]; Rate 500 g/ha) was 0, the “Plant response rating, Barley (winter)” value [8, 16] was 0 and the “Plant response rating, Barley (winter)” value [8, 25] was 0. For the same compound, the “Plant response rating, Barley (winter)” value ([8]; Rate 250 g/ha, 0 to 100 scale) was 5, the “Plant response rating, Wheat (winter)” value [9, 16] was 0 and the “Plant response rating, Wheat (winter)” value [9, 25] was 0. For the same compound, the “Plant response rating, Wheat (winter)” value ([9]; Rate 250 g/ha, 0 to 100 scale) was 0, the “Plant response rating, Blackgrass” value [10, 16] was 20 and the “Plant response rating, Blackgrass” value [10, 25] was 50. The “Plant response rating, Blackgrass” value ([10]; Rate 250 g/ha, 0 to 100 scale) was 60, the “Cocklebur plant response rating” value [11, 17] was 2 and the “Cocklebur plant response rating” value [11, 31] was 2. The “Cocklebur plant response rating” value [11, 18] was 0, the “Plant response rating, Cocklebur” value [11, 32] was 0 and the “Plant response rating, Cocklebur” value [11, 33] was 0. The “Cocklebur plant response rating” value [11, 21] was 0, the “Cocklebur plant response rating” value [11, 22] was 0 and the “Cocklebur plant response rating” value [11, 24] was 3. For the same compound, the “Plant response rating, Purple nutsedge” value ([12]; Rate 250 g/ha) was 0, the “Plant response rating, Purple nutsedge” value ([12]; Rate 500 g/ha) was 0 and the “Crabgrass plant response rating” value [13, 17] was 3. For the same compound, the “Crabgrass plant response rating” value [13, 31] was 3, the “Crabgrass plant response rating” value [13, 18] was 3 and the “Plant response rating, Crabgrass” value [13, 32] was 3. The “Plant response rating, Crabgrass” value [13, 33] was 9, the “Crabgrass plant response rating” value [13, 21] was 10 and the “Crabgrass plant response rating” value [13, 22] was 2. For the same compound, the “Crabgrass plant response rating” value [13, 24] was 8, the “Plant response rating, Large crabgrass” value ([14]; Rate 250 g/ha) was 100 and the “Plant response rating, Large crabgrass” value ([14]; Rate 500 g/ha) was 100. For the same compound, the “Plant response rating, I. Ryegrass” value [15, 16] was 0, the “Plant response rating, I. Ryegrass” value [15, 25] was 0 and the “Plant response rating, I. Ryegrass” value ([15]; Rate 250 g/ha, 0 to 100 scale) was 20.
